# Tests used:
# Format in all cases: cell-based
# human TLR7 = target: T1, human TLR7 (Homo sapiens, UniProt Q9NYK1); experiment: TLR7 inhibition reporter assay (HEK-Blue SEAP reporter); conditions: HEK-Blue cells overexpressing human TLR7; gardiquimod 7.5 μM; 22 hour incubation
# T1 construct: host or cells: HEK-Blue cells
# T1 sequence (Q9NYK1 27-1049): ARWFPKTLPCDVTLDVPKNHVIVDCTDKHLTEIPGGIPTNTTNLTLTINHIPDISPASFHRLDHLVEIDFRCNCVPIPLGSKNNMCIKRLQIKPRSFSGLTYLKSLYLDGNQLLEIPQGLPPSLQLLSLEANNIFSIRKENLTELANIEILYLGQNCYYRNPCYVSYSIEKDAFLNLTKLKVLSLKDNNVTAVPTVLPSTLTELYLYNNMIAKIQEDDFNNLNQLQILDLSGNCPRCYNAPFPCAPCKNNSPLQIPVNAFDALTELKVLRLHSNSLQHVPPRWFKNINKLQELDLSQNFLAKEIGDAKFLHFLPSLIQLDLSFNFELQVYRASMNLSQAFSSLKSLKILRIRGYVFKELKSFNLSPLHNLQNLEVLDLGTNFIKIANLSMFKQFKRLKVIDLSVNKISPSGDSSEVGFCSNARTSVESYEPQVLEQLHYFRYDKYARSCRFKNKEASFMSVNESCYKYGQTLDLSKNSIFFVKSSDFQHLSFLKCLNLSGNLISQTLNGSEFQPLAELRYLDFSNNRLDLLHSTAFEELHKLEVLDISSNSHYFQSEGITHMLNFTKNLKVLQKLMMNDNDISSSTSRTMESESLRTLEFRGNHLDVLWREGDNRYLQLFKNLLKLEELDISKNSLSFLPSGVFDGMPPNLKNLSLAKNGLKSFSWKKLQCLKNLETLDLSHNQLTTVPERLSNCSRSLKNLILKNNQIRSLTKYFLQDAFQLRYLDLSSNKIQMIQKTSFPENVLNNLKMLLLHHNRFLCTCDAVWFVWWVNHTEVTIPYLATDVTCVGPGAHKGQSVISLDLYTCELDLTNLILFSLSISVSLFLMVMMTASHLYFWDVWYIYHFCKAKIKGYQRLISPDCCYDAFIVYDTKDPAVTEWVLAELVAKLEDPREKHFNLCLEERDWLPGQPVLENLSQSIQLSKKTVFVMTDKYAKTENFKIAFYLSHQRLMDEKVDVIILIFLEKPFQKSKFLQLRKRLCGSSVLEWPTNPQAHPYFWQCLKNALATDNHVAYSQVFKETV
# Method in brief: (§1)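 Compound treatment: 30 min, RT, 0.05 nM–50 μM final. Agonist: TLR7 gardiquimod 7.5 μM; TLR8 R848 15.9 μM; TLR9 ODN2006 5 nM. Incubation 22 h, 37 °C, 5% CO2. Readout SEAP, HEK-Blue Detection.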
# human TLR8 = target: T2, human TLR8 (Homo sapiens, UniProt Q9NR97); experiment: TLR8 inhibition reporter assay (HEK-Blue SEAP reporter); conditions: HEK-Blue cells overexpressing human TLR8; R848 15.9 μM; 22 hour incubation
# T2 construct: host or cells: HEK-Blue cells
# T2 sequence (Q9NR97 27-1041): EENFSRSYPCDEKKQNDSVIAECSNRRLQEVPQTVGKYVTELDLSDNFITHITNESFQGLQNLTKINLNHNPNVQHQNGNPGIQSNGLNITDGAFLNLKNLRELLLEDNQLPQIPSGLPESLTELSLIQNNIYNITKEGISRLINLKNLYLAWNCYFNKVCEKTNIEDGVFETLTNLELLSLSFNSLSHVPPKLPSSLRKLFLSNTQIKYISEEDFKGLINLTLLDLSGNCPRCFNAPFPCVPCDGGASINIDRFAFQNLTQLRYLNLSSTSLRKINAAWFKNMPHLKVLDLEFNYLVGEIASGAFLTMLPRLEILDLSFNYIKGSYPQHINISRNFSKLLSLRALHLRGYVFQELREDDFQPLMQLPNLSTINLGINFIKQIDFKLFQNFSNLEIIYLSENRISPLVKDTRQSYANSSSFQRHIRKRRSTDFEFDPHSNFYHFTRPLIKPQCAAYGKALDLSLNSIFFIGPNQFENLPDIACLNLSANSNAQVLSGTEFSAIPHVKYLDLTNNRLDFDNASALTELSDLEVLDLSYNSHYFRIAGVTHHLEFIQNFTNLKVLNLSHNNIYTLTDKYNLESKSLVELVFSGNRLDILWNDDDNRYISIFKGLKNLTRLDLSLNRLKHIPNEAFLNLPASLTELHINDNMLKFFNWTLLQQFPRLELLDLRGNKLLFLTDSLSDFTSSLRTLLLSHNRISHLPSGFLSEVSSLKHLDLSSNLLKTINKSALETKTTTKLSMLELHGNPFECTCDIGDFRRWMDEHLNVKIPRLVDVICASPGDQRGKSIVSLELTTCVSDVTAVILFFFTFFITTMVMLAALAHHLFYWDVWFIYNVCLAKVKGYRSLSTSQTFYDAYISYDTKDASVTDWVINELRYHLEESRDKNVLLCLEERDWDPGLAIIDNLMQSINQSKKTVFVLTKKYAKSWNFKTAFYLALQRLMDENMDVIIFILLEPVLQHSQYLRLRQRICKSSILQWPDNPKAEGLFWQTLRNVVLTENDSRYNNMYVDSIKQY
# Method in brief: as §1
# human TLR9 = target: T3, human TLR9 (Homo sapiens, UniProt Q9NR96); experiment: TLR9 inhibition reporter assay (HEK-Blue SEAP reporter); conditions: HEK-Blue cells overexpressing human TLR9; ODN2006 5 nM; 22 hour incubation
# T3 construct: host or cells: HEK-Blue cells
# T3 sequence (Q9NR96 26-1032): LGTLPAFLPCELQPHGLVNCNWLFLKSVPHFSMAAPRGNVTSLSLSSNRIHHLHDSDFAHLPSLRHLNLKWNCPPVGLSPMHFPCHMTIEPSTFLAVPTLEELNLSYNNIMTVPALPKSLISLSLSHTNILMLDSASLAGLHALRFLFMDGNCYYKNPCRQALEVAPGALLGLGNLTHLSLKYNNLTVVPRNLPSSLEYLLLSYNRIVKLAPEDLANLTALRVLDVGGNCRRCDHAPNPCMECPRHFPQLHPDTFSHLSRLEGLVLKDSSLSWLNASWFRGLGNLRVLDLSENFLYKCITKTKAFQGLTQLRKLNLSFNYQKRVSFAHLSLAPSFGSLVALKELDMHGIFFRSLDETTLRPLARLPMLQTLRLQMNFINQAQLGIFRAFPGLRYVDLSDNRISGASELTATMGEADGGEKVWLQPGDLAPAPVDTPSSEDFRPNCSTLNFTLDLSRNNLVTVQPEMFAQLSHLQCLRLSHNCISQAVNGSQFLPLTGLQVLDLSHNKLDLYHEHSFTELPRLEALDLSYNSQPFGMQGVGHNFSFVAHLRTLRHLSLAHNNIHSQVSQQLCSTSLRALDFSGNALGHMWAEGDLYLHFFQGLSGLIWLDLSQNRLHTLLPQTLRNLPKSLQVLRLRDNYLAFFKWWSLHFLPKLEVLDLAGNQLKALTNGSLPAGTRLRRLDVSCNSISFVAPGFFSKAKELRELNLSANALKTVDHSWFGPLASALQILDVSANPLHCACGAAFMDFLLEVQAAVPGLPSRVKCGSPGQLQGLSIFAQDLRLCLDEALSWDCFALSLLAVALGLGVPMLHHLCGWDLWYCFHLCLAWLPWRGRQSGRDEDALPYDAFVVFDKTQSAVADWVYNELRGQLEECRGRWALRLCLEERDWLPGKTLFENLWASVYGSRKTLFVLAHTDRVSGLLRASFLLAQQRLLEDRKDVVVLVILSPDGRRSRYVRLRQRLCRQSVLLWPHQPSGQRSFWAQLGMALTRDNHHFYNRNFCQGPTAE
# Method in brief: as §1
Compound,IC50 (human TLR7) [µM],IC50 (human TLR8) [µM],IC50 (human TLR9) [µM]
"COc1ccc(-c2[nH]c3ccc(N4CCC(NCCN5CCOCC5)CC4)cc3c2C(C)C)cc1OC [Example 86, 1-(2-(3,4-dimethoxyphenyl)-3-isopropyl-1H-indol-5-yl)-N-(2-morpholinoethyl)piperidin-4-amine]",0.041,0.0048,2.8
"COc1ccc(-c2[nH]c3ccc(N4CCC(NC5CCN(C(C)=O)CC5)CC4)cc3c2C(C)C)cc1OC [Example 89, 1-(4-((1-(2-(3,4-dimethoxyphenyl)-3-isopropyl-1H-indol-5-yl)piperidin-4-yl)amino)piperidin-1-yl) ethan-1-one]",0.031,0.005,2
"COc1ccc(-c2[nH]c3ccc(N4CCC(N5CCN(c6ccncc6)CC5)CC4)cc3c2C(C)C)cc1OC [Example 94, 2-(3,4-dimethoxyphenyl)-3-isopropyl-5-(4-(4-(pyridin-4-yl)piperazin-1-yl)piperidin-1-yl)-1H-indole]",0.033,0.0035,0.816
"COc1ccc(-c2[nH]c3ccc(N4CCC(NC5CC(C)(C)N(C)C(C)(C)C5)CC4)cc3c2C(C)C)cc1OC [Example 95, N-(1-(2-(3,4-dimethoxyphenyl)-3-isopropyl-1H-indol-5-yl)piperidin-4-yl)-1,2,2,6,6-pentamethylpiperidin-4-amine]",0.039,0.0078,0.533
"COc1ccc(-c2[nH]c3ccc(N4CCC(C5CCN(Cc6cccn6C)CC5)CC4)cc3c2C(C)C)cc1OC [Example 96, 2-(3,4-dimethoxyphenyl)-3-isopropyl-5-(1′-((1-methyl-1H-pyrrol-2-yl)methyl)-[4,4′-bipiperidin]-1-yl)-1H-indole]",0.436,1.05,2.84
"COc1ccc(-c2[nH]c3ccc(N4CCC(C5CCN(CCC(F)(F)F)CC5)CC4)cc3c2C(C)C)cc1OC [Example 97, 2-(3,4-dimethoxyphenyl)-3-isopropyl-5-(1′-(3,3,3-trifluoropropyl)-[4,4′-bipiperidin]-1-yl)-1H-indole]",0.862,1.91,6.61
"COc1ccc(-c2[nH]c3ccc(N4CCC(N5CCN(CCCN6CCCC6)CC5)CC4)cc3c2C(C)C)cc1OC [Example 102, 2-(3,4-dimethoxyphenyl)-3-isopropyl-5-(4-(4-(3-(pyrrolidin-1-yl)propyl)piperazin-1-yl)piperidin-1-yl)-1H-indole]",0.016,0.028,0.413
"COc1ccc(-c2[nH]c3ccc(NC4CC(C)(C)N(C)C(C)(C)C4)cc3c2C(C)C)cc1OC [Example 103, 2-(3,4-dimethoxyphenyl)-3-isopropyl-N-(1,2,2,6,6-pentamethylpiperidin-4-yl)-1H-indol-5-amine]",1.12,0.0082,2.67
"COc1ccc(-c2[nH]c3ccc(N(C)CC4CCCN4C)cc3c2C(C)C)cc1OC (stereo not drawn) [Example 104, 2-(3,4-dimethoxyphenyl)-3-isopropyl-N-methyl-N-((1-methylpyrrolidin-2-yl)methyl)-1H-indol-5-amine]",1.31,0.0097,6.82

# Further lines, results first:
IC50 (human TLR7) [µM],IC50 (human TLR8) [µM],IC50 (human TLR9) [µM],Compound
0.023,0.016,0.637,"COc1ccc(-c2[nH]c3ccc(N4CCC(N5CCN(C(C)C)CC5)CC4)cc3c2C(C)C)cc1OC [Example 85, 2-(3,4-dimethoxyphenyl)-3-isopropyl-5-(4-(4-isopropylpiperazin-1-yl)piperidin-1-yl)-1H-indole]"
0.037,0.019,0.809,"COc1ccc(-c2[nH]c3ccc(N4CCC(N5CCN(C(C)(C)C)CC5)CC4)cc3c2C(C)C)cc1OC [Example 90, 5-(4-(4-(tert-butyl)piperazin-1-yl)piperidin-1-yl)-2-(3,4-dimethoxyphenyl)-3-isopropyl-1H-indole]"
0.116,0.092,1.94,"COc1ccc(-c2[nH]c3ccc(N4CCC(N5CCN(CC(C)C)CC5)CC4)cc3c2C(C)C)cc1OC [Example 91, 2-(3,4-dimethoxyphenyl)-5-(4-(4-isobutylpiperazin-1-yl)piperidin-1-yl)-3-isopropyl-1H-indole]"
0.019,0.012,1.75,"COCCN1CCN(C2CCN(c3ccc4[nH]c(-c5ccc(OC)c(OC)c5)c(C(C)C)c4c3)CC2)CC1 [Example 92, 2-(3,4-dimethoxyphenyl)-3-isopropyl-5-(4-(4-(2-methoxyethyl)piperazin-1-yl)piperidin-1-yl)-1H-indole]"
0.011,0.062,0.538,"COc1ccc(-c2[nH]c3ccc(N4CCC(N5CCN(C6CCN(C)CC6)CC5)CC4)cc3c2C(C)C)cc1OC [Example 99, 2-(3,4-dimethoxyphenyl)-3-isopropyl-5-(4-(4-(1-methylpiperidin-4-yl)piperazin-1-yl)piperidin-1-yl)-1H-indole]"

# Reference: patent US11306092B2, “Amino indole compounds useful as TLR inhibitors” (BRISTOL-MYERS SQUIBB COMPANY, priority 2017, dated 2022)
